From US3962443A, “Antibacterial pharmaceutical compositions and processes for preparation thereof” (Dainippon Pharmaceutical Co., Ltd., priority 1972, dated 1976) come the findings set out here.

In brackets after ≈: the same amount, converted by molar mass. Where two headings read alike, the source gives them in different places.

The subject of assay [1] is Pseudomonas aeruginosa No. 12. The assay is described as follows: In vivo efficacy against systemic infection with Pseudomonas aeruginosa in mice. The conditions noted are these: for ED50: twice, about 5 minutes and 6 hours after infection. Further details: species or system mice (ddY-S). The procedure:
(§1) In the Tables II to IV, the ED50 and ID50 values were calculated in accordance with the Behrens-Kaerber method [Arch. Exp. Path. Pharm., 162, 480 (1931)]. The compound numbers are those described in the Examples and compounds PA and AT-616 are as follows:
(§2) total number. 0/8 means that all of 8 mice died. 8/8 means that all 8 mic
(§3) Mice: male mice (ddY-S) weighing 20 g approximately

The subject of assay [2] is Staphylococcus aureus Terajima. As to the kind of experiment: In vitro antibacterial activity, MIC by serial dilution. The assay is classed as cell-based. The conditions noted are these: nutrient broth pH 7.0, 37°C, 48 hours. Here is the method: (§4) The minimum inhibitory concentration (MIC) was determined by the well
(§5) known serial dilution method.
(§6) Experimental conditions:?
(§7) Medium: nutrient broth, pH 7.0 (5 ml/tube)
(§8) Inoculum: 1 drop of 1 : 10^5 dilution of an overnight broth culture
(§9) Incubation temperature and time: 37°C for 48 hours

For a further assay, the system named is Escherichia coli K-12. The description is as above. The class given is cell-based. Here is the method: as §4, §5, §6, §7, §8, §9
Assay [3] has as its system Pseudomonas aeruginosa Tsuchijima. The assay is described as above. The assay is classed as cell-based. The conditions noted are these: nutrient broth pH 7.0, 37°C, 48 hours. Here is the method: as §4, §5, §6, §7, §8, §9
In assay [4] the test system is Salmonella typhimurium S-9. As to the kind of experiment: In vivo efficacy against systemic infection with Salmonella typhimurium in mice. Further details: species or system mice (ddY-S). The conditions noted are these: for ED50: Salmonella enterica, TYPHIMURIUM, 336 h, twice a day for 4 days, 14 days observation; for number of the survived/the total number: 14 days. The procedure: as §1
The numerical figures in the table show the number of the survived/the
as §2
Experimental conditions.
Organism: Salmonella typhimurium S-9
as §3
Infection: Intraperitoneal infection with 50 to 100 LD50 of a
bacterial suspension in nutrient broth (about 10^5 cells/mouse)
Medication: twice a day for 4 days from the day of infection.
Drug: an alkaline solution for parenteral administration and suspension i
0.2% CMC for oral administration
i.e.: intraperitoneal administration
p.o.: oral administration

The test system of assay [5] is Mycobacterium tuberculosis H37 Rv. The assay is described as follows: Antituberculous activity in vitro, MIC by serial dilution. The assay is classed as cell-based. To be noted: H37RV, 504 h, Kirchner medium with 0.2% bovine albumin, pH 7.0, 37°C, 3 weeks. Here is the method: (§10) The minimum inhibitory concentration (MIC:μg/ml) was determined by the
(§11) well known serial dilution method.
as §6
(§12) Medium: Kirchner medium containing 0.2% bovine albumin, pH 7.0 (3 ml/tube
(§13) Inoculum: 1 drop of 1:10^2 dilution of a culture in Modified Kirchner
(§14) medium for 2 weeks (OD=0.3) per tube
(§15) Incubation temp. and time: 37°C for 3 weeks

For assay [6], the system named is Mycobacterium tuberculosis Kurono. The description is as above. The class given is cell-based. To be noted: 504 h, Kirchner medium with 0.2% bovine albumin, pH 7.0, 37°C, 3 weeks. Here is the method: as §10, §11, §6, §12, §13, §14, §15
Where [7] appears, read: NO.12, 168 h, ip, 7 days, read-out: number of the survival/the total number (converted).
Setting [8] is: NO.12, 168 h, po, 7 days, read-out: number of the survival/the total number (converted).
Setting [9] is: K12, Escherichia coli K-12, nutrient broth pH 7.0, 37°C, 48 hours, read-out: MIC.
Setting [10] is: NO.12, 168 h, ip, 100 mg/kg, 7 days, read-out: number of the survival/the total number (converted).

The term ED50 denotes the dose at which the effect has come halfway, by size or by number of responders. A lower ED50 goes with an effect at a small dose. A word on the MIC: it is the smallest concentration in the dilution series that meets the test's criterion for growth inhibition. Consider `CCn1cc(C(=O)O)c(=O)c2cnc(N3CCNCC3)nc21` [Compound 1, 5,8-Dihydro-8-ethyl-2-(1-piperazinyl)-5-oxopyrido[2,3-d]pyrimidine-6-carboxylic acid], for which the ED50 amounted to 10.5 mg/kg in assay [1] (NO.12, 168 h, ip, 7 days); 100 mg/kg in assay [1] (NO.12, 168 h, po, 7 days); 6.3 mg/kg in assay [4] (ip); 12.5 mg/kg in assay [4] (po). In addition, in assay [1] (NO.12, ip, 168 h, read-out: number of the survival/the total number, ip, 3.1 mg/kg, 7 days), the responders at 3.1 mg/kg was 12.5%. The responders at 6.3 mg/kg in assay [1] (NO.12, ip, 168 h, read-out: number of the survival/the total number, ip, 6.3 mg/kg, 7 days) is 25%. In addition, the responders at 12.5 mg/kg in assay [1] (NO.12, ip, 168 h, read-out: number of the survival/the total number, ip, 12.5 mg/kg, 7 days) is 50%. Moreover, the responders at 50 mg/kg was 100% in assay [1] (NO.12, ip, 168 h, read-out: number of the survival/the total number, ip, 50 mg/kg, 7 days) and 0% in assay [1] (NO.12, po, 168 h, read-out: number of the survival/the total number, po, 50 mg/kg, 7 days). Moreover, in assay [1] (NO.12, po, 168 h, read-out: number of the survival/the total number, po, 100 mg/kg, 7 days), the responders at 100 mg/kg was 50%. Also, the minimal inhibitory concentration (MIC) in assay [2] is 30 µg/mL (≈ 98.9 µM); in the assay on Escherichia coli K-12 (Escherichia coli, K12, 48 h, pH 7), 1 µg/mL (≈ 3.3 µM); in assay [3] it was 10 µg/mL (≈ 33 µM). In addition, the “number of the survived/the total number” value in assay [4] (ip, 6.3 mg/kg) is reported as 4/8; in assay [4] (ip, 12.5 mg/kg), 8/8; in assay [4] (ip, 25 mg/kg), 8/8; in assay [4] (po, 6.3 mg/kg) it was 0/8; in assay [4] (po, 12.5 mg/kg) it was 4/8; in assay [4] (po, 25 mg/kg) it was 8/8. Moreover, the “number of the survived/the total number” value in assay [4] (po, 50 mg/kg) is on record as 8/8.
As for `CCn1cc(C(=O)O)c(=O)c2cnc(N3CCN(c4ccccc4)CC3)nc21` [Compound 6, 5,8-Dihydro-8-ethyl-2-(4-phenyl-1-piperazinyl)-5-oxoprido[2,3-d]pyrimidine-6-carboxylic acid], the MIC in assay [5] and in assay [6] was 6.3 µg/mL (≈ 16.6 µM) throughout.
`CCn1cc(C(=O)O)c(=O)c2cnc(N3CCNCC3)nc21.Cl` [Compound 11, 5,8-Dihydro-8-ethyl-2-(1-piperazinyl)-5-oxopyrido[2,3-d]pyrimidine-6-carboxylic acid hydrochloride]: in assay [1] (setting [7]), the responders at 25 mg/kg was 100%. In addition, the ED50 in assay [1] (NO.12, 168 h, ip, 7 days) was less than 17.7 mg/kg; in assay [1] (NO.12, 168 h, po, 7 days) it was less than 100 mg/kg; in assay [4] (po), less than 35.4 mg/kg. Besides, the responders at 100 mg/kg in assay [1] (NO.12, 168 h, po, 100 mg/kg, 7 days, read-out: number of the survival/the total number (converted)) is 87.5%. Moreover, the responders at 200 mg/kg in assay [1] (setting [8]) is 100%. In addition, the results for the MIC (in assay [2]; with Escherichia coli K-12 (setting [9]); in assay [3]) were 30 µg/mL, 3 µg/mL and 10 µg/mL, respectively. The “number of the survived/the total number” value in assay [4] (po, 50 mg/kg) is 8/8.
In the case of `CCN1CCN(c2ncc3c(=O)c(C(=O)O)cn(CC)c3n2)CC1` [Compound 21, 2-(4-ethyl-1-piperazinyl)-5,8-dihydro-8-ethyl-5-oxopyrido[2,3-d]pyrimidine-6-carboxylic acid], the responders at 50 mg/kg in assay [1] (NO.12, 168 h, ip, 50 mg/kg, 7 days, read-out: number of the survival/the total number (converted)) was 0%. Besides, in assay [1] (setting [10]), the responders at 100 mg/kg is 50%. For the same compound, the ED50 in assay [1] (NO.12, 168 h, ip, 7 days) is roughly 100 mg/kg; in assay [1] (NO.12, 168 h, po, 7 days), roughly 200 mg/kg; in assay [4] (ip) it was less than 17.7 mg/kg; in assay [4] (po), less than 17.7 mg/kg. Moreover, the responders at 200 mg/kg in assay [1] (setting [8]) was 50%. Moreover, the MIC came to 30 µg/mL (≈ 90.5 µM) in assay [2], 1 µg/mL (≈ 3.02 µM) in the assay with Escherichia coli K-12 (setting [9]) and 100 µg/mL (≈ 302 µM) in assay [3]. The “number of the survived/the total number” value in assay [4] (ip, 25 mg/kg) is listed as 8/8; in assay [4] (po, 25 mg/kg) it was 8/8.
Take `O=C(O)c1cn(Cc2ccccc2)c2nc(N3CCNCC3)ncc2c1=O` [Compound 33, 8-Benzyl-5,8-dihydro-2-(1-piperazinyl)-5-oxopyrido [2,3-d]pyrimidine-6-carboxylic acid]: the responders at 25 mg/kg in assay [1] (setting [7]) is 100%. In addition, the median effective dose (ED50) in assay [1] (NO.12, 168 h, ip, 7 days) is less than 17.7 mg/kg; in assay [4] (ip), 12.5 mg/kg. Moreover, the MIC in assay [2] came to 100 µg/mL (≈ 274 µM); in the assay with Escherichia coli K-12 (setting [9]) it was 3 µg/mL (≈ 8.21 µM); in assay [3], 10 µg/mL (≈ 27.4 µM). Moreover, the “number of the survived/the total number” value in assay [4] (ip, 6.3 mg/kg) is on record as 1/8; in assay [4] (ip, 12.5 mg/kg), 4/8; in assay [4] (ip, 25 mg/kg) it was 7/8.
Turning to `CCn1cc(C(=O)O)c(=O)c2cnc(N3CCCC3)nc21` [Compound PA, reference compound], the responders at 100 mg/kg in assay [1] (setting [10]) was 0%. Further, the ED50 is greater than 100 mg/kg in assay [1] (NO.12, 168 h, ip, 7 days); greater than 200 mg/kg in assay [1] (NO.12, 168 h, po, 7 days); 43.5 mg/kg in assay [4] (ip); 46.7 mg/kg in assay [4] (po). For the same compound, the responders at 200 mg/kg in assay [1] (setting [8]) was 0%. Also, the minimum inhibitory concentration (MIC) in assay [2] amounted to 10 µg/mL (≈ 34.7 µM); with Escherichia coli K-12 (setting [9]), 1 µg/mL (≈ 3.47 µM); in assay [3], 100 µg/mL (≈ 347 µM); in assay [5], 100 µg/mL (≈ 347 µM); in assay [6], 100 µg/mL (≈ 347 µM). Also, the “number of the survived/the total number” value in assay [4] (ip, 12.5 mg/kg) is reported as 0/10; in assay [4] (ip, 25 mg/kg), 3/10; in assay [4] (ip, 50 mg/kg), 5/10; in assay [4] (ip, 100 mg/kg), 9/10; in assay [4] (po, 12.5 mg/kg) it was 0/10; in assay [4] (po, 25 mg/kg), 3/10. Moreover, the “number of the survived/the total number” value in assay [4] (po, 50 mg/kg) was 4/10; in assay [4] (po, 100 mg/kg), 10/10.
